Consider 4 molecules from paper PMC5668925 (Biochemistry and Biophysics Reports, 2015).

Where two headings read alike, the source gives them in different places.

The target in data set [1] is T1, NCT (N- and C-terminal truncated trehalase) (Spodoptera frugiperda, UniProt Q0ZIF5, C-[…]/DEL1-102/LAST/RESIDUES/[…]).
T1 sequence (Q0ZIF5 126-556): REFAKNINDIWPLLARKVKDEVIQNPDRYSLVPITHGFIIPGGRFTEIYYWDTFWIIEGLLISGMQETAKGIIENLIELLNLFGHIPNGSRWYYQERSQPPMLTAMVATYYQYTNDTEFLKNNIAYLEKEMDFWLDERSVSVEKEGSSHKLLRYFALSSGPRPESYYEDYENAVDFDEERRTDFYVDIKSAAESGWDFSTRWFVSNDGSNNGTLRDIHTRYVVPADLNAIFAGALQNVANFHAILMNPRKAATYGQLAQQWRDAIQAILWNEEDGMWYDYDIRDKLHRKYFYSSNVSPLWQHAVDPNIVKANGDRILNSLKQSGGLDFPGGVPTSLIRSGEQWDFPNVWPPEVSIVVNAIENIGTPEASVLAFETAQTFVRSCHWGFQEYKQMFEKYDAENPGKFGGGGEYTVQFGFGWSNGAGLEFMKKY
Nature of the data set: glucose release assay, Lineweaver-Burk slope replots. The format is biochemical.

Data set [2] addresses T2, WT (SfTre1, S. frugiperda midgut soluble trehalase, recombinant) (Spodoptera frugiperda, UniProt Q0ZIF5).
T2 sequence (Q0ZIF5 24-587): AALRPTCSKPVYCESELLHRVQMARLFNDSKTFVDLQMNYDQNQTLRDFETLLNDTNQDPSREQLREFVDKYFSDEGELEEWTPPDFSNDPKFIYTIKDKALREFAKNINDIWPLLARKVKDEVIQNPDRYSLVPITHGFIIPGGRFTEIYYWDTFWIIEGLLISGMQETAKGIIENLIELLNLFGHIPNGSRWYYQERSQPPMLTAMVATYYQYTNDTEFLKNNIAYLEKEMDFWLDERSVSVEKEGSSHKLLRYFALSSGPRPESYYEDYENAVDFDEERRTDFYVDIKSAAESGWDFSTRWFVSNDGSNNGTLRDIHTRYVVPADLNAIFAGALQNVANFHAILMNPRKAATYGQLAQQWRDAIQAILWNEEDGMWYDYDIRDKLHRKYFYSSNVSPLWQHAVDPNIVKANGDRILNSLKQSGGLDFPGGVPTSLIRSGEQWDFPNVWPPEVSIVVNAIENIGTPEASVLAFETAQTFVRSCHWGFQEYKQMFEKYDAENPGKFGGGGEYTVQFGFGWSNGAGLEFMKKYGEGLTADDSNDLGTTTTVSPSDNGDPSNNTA
Described as above. The data set is classed as biochemical.

Data set [3] addresses T2, WT (SfTre1, S. frugiperda midgut soluble trehalase, recombinant). The data set is described as above. The format is biochemical. The source holds these as a separate data set.
For data set [4], the target named is T1, NCT (N- and C-terminal truncated trehalase). The data set is described as above. The data set is classed as biochemical. This is another data set of the same source.
The target in data set [5] is T3, NT (N-terminal truncated trehalase) (Spodoptera frugiperda, UniProt Q0ZIF5, DEL1-102).
T3 sequence (Q0ZIF5 126-587): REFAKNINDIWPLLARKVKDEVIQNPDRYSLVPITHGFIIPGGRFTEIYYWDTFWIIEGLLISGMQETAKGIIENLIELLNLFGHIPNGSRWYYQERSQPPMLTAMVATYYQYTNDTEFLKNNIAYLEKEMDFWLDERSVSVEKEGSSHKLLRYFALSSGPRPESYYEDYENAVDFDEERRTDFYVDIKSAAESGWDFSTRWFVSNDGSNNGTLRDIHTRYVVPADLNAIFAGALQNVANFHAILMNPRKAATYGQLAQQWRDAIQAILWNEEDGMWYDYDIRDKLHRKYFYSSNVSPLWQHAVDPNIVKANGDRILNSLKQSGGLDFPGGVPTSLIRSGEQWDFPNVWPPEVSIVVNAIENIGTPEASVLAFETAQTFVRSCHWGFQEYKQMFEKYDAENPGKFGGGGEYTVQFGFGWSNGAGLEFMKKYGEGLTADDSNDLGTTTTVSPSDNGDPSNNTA
The description is as above. The format is biochemical.

For data set [6], the target named is T4, NT (N-terminal truncated trehalase) (Spodoptera frugiperda, UniProt Q0ZIF5).
T4 sequence (Q0ZIF5 126-587): T3 sequence (Q0ZIF5 126-587)
Described as above. The data set is classed as biochemical. Particulars: read-out: Enzyme / NT; competitive; substrate trehalose 0.2-2 mM; pH 6.0, 30 °C.

Data set [7] addresses T5, NCT (N- and C-terminal truncated trehalase) (Spodoptera frugiperda, UniProt Q0ZIF5).
T5 sequence (Q0ZIF5 126-556): T1 sequence (Q0ZIF5 126-556)
Described as above. The data set is classed as biochemical. The following applies: read-out: Enzyme / NCT; competitive; substrate trehalose 0.2-2 mM; pH 6.0, 30 °C.

Substrate in the data set “purified protein”: OC[C@H]1O[C@H](O[C@H]2O[C@H](CO)[C@@H](O)[C@H](O)[C@H]2O)[C@H](O)[C@@H](O)[C@@H]1O
Nature of the data set: purified protein. Particulars: pH 6.0 citrate-sodium phosphate, 30 °C.

Turning to `OC[C@H]1NC[C@H](O)[C@@H](O)[C@@H]1O` [1-deoxynojirimycin], the Ki in data set [1] was found to be 0.8 ± 0.2 µM; in data set [2], 1 ± 0.24 µM.

For the molecule `N#C[C@H](O[C@@H]1O[C@H](CO[C@@H]2O[C@H](CO)[C@@H](O)[C@H](O)[C@H]2O)[C@@H](O)[C@H](O)[C@H]1O)c1ccccc1` [amygdalin], the figures for the Ki in data set [3], in data set [4] and in data set [5] were 280 ± 70 µM, 490 ± 90 µM and 400 ± 100 µM, respectively.

As for `COC1OC(CO)C(O)C(O)C1O` (stereo not drawn) [methyl α-mannoside], the Ki in data set [6] stood at 17000 ± 2000 µM; in data set [7], 16000 ± 1000 µM; in data set [2] (read-out: Enzyme / WT, competitive, substrate trehalose 0.2-2 mM, pH 6.0, 30 °C), 17000 ± 1000 µM.

B1: WT (SfTre1, S. frugiperda midgut soluble trehalase, recombinant) (Spodoptera frugiperda) (protein)
chain: T2 sequence (Q0ZIF5 24-587)
As usually defined, the kcat/Km is the second-order rate constant that governs catalysis at low substrate concentration. As for B1, the catalytic efficiency (kcat/Km) in the data set “purified protein” turned out to be 74500 M⁻¹ s⁻¹.
